Assay results reported in ChEMBL document CHEMBL5543084, “Development of cannabidiol derivatives as potent broad-spectrum antibacterial agents with membrane-disruptive mechanism” (Eur J Med Chem, 2024).
Active and inactive are the calls of the source. No cut-off for these calls is given here.

Assays:
Staphylococcus aureus [1] = assay: Antibacterial activity against Staphylococcus aureus ATCC 29213 assessed as inhibition of bacterial growth incubated for 24 hrs in presence of 140 mM Na+ by broth dilution method; format: functional
Escherichia coli [2] = assay: Antibacterial activity against Escherichia coli ATCC 25922 assessed as inhibition of bacterial growth incubated for 24 hrs in presence of 2.5 mM Ca2+ by broth dilution method; format: functional
Staphylococcus aureus [3] = assay: Antibacterial activity against methicillin-resistant Staphylococcus aureus NCTC 10442 assessed as inhibition of bacterial growth incubated for 24 hrs in presence of 4.5 mM K+ by broth dilution method; format: functional
Escherichia coli [4] = assay: Antibacterial activity against Escherichia coli ATCC 25922 assessed as inhibition of bacterial growth incubated for 24 hrs in presence of 4.5 mM K+ by broth dilution method; format: functional
Klebsiella pneumoniae [5] = assay: Antibacterial activity against Klebsiella pneumoniae ATCC 10031 assessed as inhibition of bacterial growth incubated for 24 hrs in presence of 4.5 mM K+ by broth dilution method; format: functional
Staphylococcus aureus [6] = assay: Antibacterial activity against Staphylococcus aureus ATCC 29213 assessed as inhibition of bacterial growth incubated for 24 hrs in presence of 19 uM Zn2+ by broth dilution method; format: functional
Staphylococcus aureus [7] = assay: Antibacterial activity against methicillin-resistant Staphylococcus aureus NCTC 10442 assessed as inhibition of bacterial growth incubated for 24 hrs in presence of 19 uM Zn2+ by broth dilution method; format: functional
Escherichia coli [8] = assay: Antibacterial activity against Escherichia coli ATCC 25922 assessed as inhibition of bacterial growth incubated for 24 hrs in presence of 19 uM Zn2+ by broth dilution method; format: functional
Klebsiella pneumoniae [9] = assay: Antibacterial activity against Klebsiella pneumoniae ATCC 10031 assessed as inhibition of bacterial growth incubated for 24 hrs in presence of 19 uM Zn2+ by broth dilution method; format: functional
Staphylococcus aureus [10] = assay: Antibacterial activity against methicillin-resistant Staphylococcus aureus NCTC 10442 assessed as inhibition of bacterial growth incubated for 24 hrs in presence of 20 uM Fe2+ by broth dilution method; format: functional
[11] = Cytotoxicity against human HepG2 cells assessed as viable cells at 12.5 microg/ml incubated for 24 hrs by CCK-8 assay; format: toxicity, cell-based; conditions: at 12.5 µg/mL, read-out: Activity
Staphylococcus aureus [12] = assay: Bactericidal activity against methicillin-resistant Staphylococcus aureus NCTC 10442 assessed as bacterial reduction at 4 time of MIC concentration incubated for 2 hrs by time-kill assay; format: functional
Staphylococcus aureus [13] = assay: Bactericidal activity against methicillin-resistant Staphylococcus aureus NCTC 10442 assessed as bacterial killing at 8 time of MIC concentration incubated for 1 hr by time-kill assay relative to control; format: functional
Cell membrane [14] = assay: Induction of cytoplasmic membrane permeabilization in methicilin-resistant Staphylococcus aureus […] assessed as disruption of cell membrane integrity by measuring increase in fluorescence intensity at 1 to 8 times of MIC concentration measured upto 60 mins by SYTOX green dye based fluorescence analysis; format: cell membranes; conditions: NCTC 10442
Cell membrane [15] = assay: Induction of cytoplasmic membrane permeabilization in Pseudomonas aeruginosa ATCC 9027 assessed as disruption of cell membrane integrity measured upto 60 mins by measuring increase in fluorescence intensity at 1 to 8 times of MIC concentration by SYTOX green dye based fluorescence analysis; format: cell membranes
Cell membrane [16] = assay: Induction of cytoplasmic membrane permeabilization in Escherichia coli ATCC 25922 assessed as disruption of cell membrane integrity measured upto 60 mins by measuring increase in fluorescence intensity at 1 to 8 times of MIC concentration by SYTOX green dye based fluorescence analysis; format: cell membranes
Cell membrane [17] = assay: Induction of outer membrane permeabilization in Escherichia coli ATCC 25922 assessed as increase in fluorescence intensity at 1 to 8 times MIC concentration by NPN-dye based fluorescence analysis; format: cell membranes
Lipopolysaccharide (LPS) = assay: Displacement of BODIPY-TR-cadaverine from Escherichia coli lipopolysaccharide (LPS) assessed as increase in fluorescence intensity by fluorescence spectrophotometric analysis; format: subcellular
Escherichia coli [18] = assay: Bactericidal activity against Escherichia coli ATCC 25922 assessed as down-regulation down of ferroxidase activity (GO:0004322) at 4 times of MIC concentration measured after 90 mins incubation by RNA sequencing (RNA-seq) study; format: functional, organism-based
Escherichia coli [19] = assay: Bactericidal activity against Escherichia coli ATCC 25922 assessed as down-regulation of galactose metabolic process (GO:0006012) at 4 times of MIC concentration measured after 90 mins incubation by RNA sequencing (RNA-seq) study; format: functional, organism-based
Escherichia coli [20] = assay: (§1) Bactericidal activity against Escherichia coli ATCC 25922 assessed as change in amino acid metabolism gene expression at 4 times of MIC concentration measured after 90 mins incubation by RNA sequencing (RNA-seq) study; format: functional, organism-based
Staphylococcus aureus [21] = assay: Bactericidal activity against methicillin-resistant Staphylococcus aureus NCTC 10442 assessed as down regulation of other glycan degradation gene expression at 4 times of MIC concentration measured after 90 mins incubation by RNA sequencing (RNA-seq) study; format: functional, organism-based
Staphylococcus aureus [22] = assay: Bactericidal activity against methicillin-resistant Staphylococcus aureus NCTC 10442 assessed as up regulation of phosphonate and phosphinate metabolism gene expression at 4 times of MIC concentration measured after 90 mins incubation by RNA sequencing (RNA-seq) study; format: functional, organism-based
Escherichia coli [23] = assay: Bactericidal activity against Escherichia coli ATCC 25922 assessed as down regulation of benzoate degradation gene expression at 4 times of MIC concentration measured after 90 mins incubation by RNA sequencing (RNA-seq) study; format: functional, organism-based
Staphylococcus aureus [24] = assay: (§2) Bactericidal activity against methicillin-resistant Staphylococcus aureus NCTC 10442 assessed as change in cell death associated gene expression by measuring up-regulation of clfB, DX983_RS14825) and DX983_RS14235 gene expression at 4 times of MIC concentration measured after 90 mins incubation by RNA sequencing (RNA-seq) study; format: functional, organism-based
Staphylococcus aureus [25] = assay: as §2, with “down-regulation” for “up-regulation”, “biofilm formation plfA (DX983_RS01360)” for “clfB, DX983_RS14825)”, “plfB (DX983_RS01355)” for “DX983_RS14235”; format: functional, organism-based
Escherichia coli [26] = assay: as §1, with “cell death associated gene expression by measuring down-regulation of LPS export ABC transporter periplasmic-encoding gene (lptC, D1792_RS12575)” for “amino acid metabolism”; format: functional, organism-based
Escherichia coli [27] = assay: as §1, with “cell death associated gene expression by measuring down-regulation of CDPglycerol glycero-phosphotransferase (D1792_RS11350)” for “amino acid metabolism”; format: functional, organism-based
Escherichia coli [28] = assay: as §1, with “cell death associated gene expression by measuring down-regulation of LPS export ABC transporter periplasmic-encoding gene (D1792_RS11370)” for “amino acid metabolism”; format: functional, organism-based
Staphylococcus aureus [29] = assay: as §2, with “metabolic stress” for “cell death”, “down-regulation” for “up-regulation”, “glucosaminidase domain-containing protein (atl, DX983_RS02250)” for “clfB, DX983_RS14825) and DX983_RS14235”; format: functional, organism-based; conditions: NTCC 10442
Pseudomonas aeruginosa = assay: In vivo antibacterial activity against Pseudomonas aeruginosa ATCC 9027 infected C57BL6 mouse corneal infection model assessed as reduction in bacterial burden at 3 mg/ml, TOP 4 times in a day for 2 consecutive days; format: functional; conditions: time 2 day
[30] = Toxicity in C57BL6 mouse assessed as signs of toxicity treated in eyeballs 4 times in a day for 3 consecutive days; conditions: in vivo, topical_or_ocular
[31] = Toxicity in C57BL6 mouse assessed as corneal damage treated in eyeballs 4 times in a day for 3 consecutive days; conditions: in vivo, topical_or_ocular

C=C(C)[C@@H]1CCC(C)=C[C@H]1c1c(OCCCNC(=N)N)cc(CCCCC)cc1OCCCNC(=N)N
MIC (Staphylococcus aureus [1]): 0.78 µg/mL
MIC (Escherichia coli [2]): 3.12 µg/mL
MIC (Staphylococcus aureus [3]): 0.39 µg/mL
MIC (Escherichia coli [4]): 1.56 µg/mL
MIC (Klebsiella pneumoniae [5]): 6.25 µg/mL
MIC (Staphylococcus aureus [6]): 0.78 µg/mL
MIC (Staphylococcus aureus [7]): 0.39 µg/mL
MIC (Escherichia coli [8]): 0.78 µg/mL
MIC (Klebsiella pneumoniae [9]): 3.12 µg/mL
MIC (Staphylococcus aureus [10]): 0.39 µg/mL
viability at 24 h, 12.5 microg/ml [11]: 91.3%
Activity (Staphylococcus aureus [12]): 3 log10FFU/ml
inhibition (INH) (Staphylococcus aureus [13]): 100%
Activity (Cell membrane [14]): Active
Activity (Cell membrane [15]): Active
Activity (Cell membrane [16]): Active
Activity (Cell membrane [17]): Dose-Dependent Effect
Activity (Lipopolysaccharide (LPS)): Dose-Dependent Effect
Activity (Escherichia coli [18]): Active
Activity (Escherichia coli [19]): Active
Activity (Escherichia coli [20]): Active
Activity (Staphylococcus aureus [21]): Active
Activity (Staphylococcus aureus [22]): Active
Activity (Escherichia coli [23]): Active
Activity (Staphylococcus aureus [24]): Active
Activity (Staphylococcus aureus [25]): Active
Activity (Escherichia coli [26]): Active
Activity (Escherichia coli [27]): Active
Activity (Escherichia coli [28]): Active
Activity (Staphylococcus aureus [29]): Active
Activity (Pseudomonas aeruginosa): 6.41 log10FFU/ml
Activity [30]: Non-Toxic
Activity [31]: Non-Toxic
